What all share (assay type): cell-based
Test [1] concerns Pseudomonas aeruginosa cystic fibrosis isolate 3198. Nature of the test: MIC vs cystic fibrosis isolate of P. aeruginosa 3198 (sensitive to most antibacterials). Particulars: strain 3198, Sensitive, comparator antibacterials. The procedure: (§1) Bacterial isolates were cultivated from −70° C. frozen stocks by two consecutive overnight passages at 35° C. in ambient air on 5% blood agar (Remel, Lenexa, Kans.). Clinical isolates tested were from a collection composed of isolates collected during clinical trials and recent clinical isolates obtained from various geographically diverse hospitals in the US. Quality control and primary panel strains were from the American Type Culture Collection (ATCC; Rockville, Md.), with the exception of P. aeruginosa PAO200, a strain with a deletion of the mexABoprM genes that was received from Dr. H. Schweizer.
(§2) Minimum Inhibitory Concentrations (MICs) were determined by the broth microdilution method in accordance with the National Committee for Clinical Laboratory Standards (NCCLS) guidelines. In brief, organism suspensions were are adjusted to a 0.5 McFarland standard to yield a final inoculum between 3×10^5 and 7×10^5 colony-forming units (CFU)/mL. Drug dilutions and inocula were made in sterile, cation adjusted Mueller-Hinton Broth (Remel). An inoculum volume of 100 μl was added to wells containing 100 μl of broth with 2-fold serial dilutions of drug. All inoculated microdilution trays were incubated in ambient air at 35° C. for 18-24 hours. Following incubation, the lowest concentration of the drug that prevented visible growth was recorded as the MIC.

Test [2] deals with Pseudomonas aeruginosa cystic fibrosis isolate 3236. Nature of the test: MIC vs cystic fibrosis isolate of P. aeruginosa 3236 (sensitive to most antibacterials). Particulars: strain 3236, Sensitive, comparator antibacterials. The protocol:
as §1, §2

In test [3] the test system is Pseudomonas aeruginosa cystic fibrosis isolate 2196. Nature of the test: MIC vs cystic fibrosis isolate of P. aeruginosa 2196 (resistant to ciprofloxacin). As to conditions: strain 2196, Cipro R, comparator antibacterials. The procedure:
as §1, §2

In test [4] the test system is Pseudomonas aeruginosa cystic fibrosis isolate 3224. The experiment in a line: MIC vs cystic fibrosis isolate of P. aeruginosa 3224. Particulars: strain 3224, Tobra R, comparator antibacterials. The procedure:
as §1, §2

Test [5] deals with Pseudomonas aeruginosa cystic fibrosis isolate 3317. Nature of the test: MIC vs cystic fibrosis isolate of P. aeruginosa 3317 (resistant to aztreonam). Particulars: strain 3317, Aztr. R, comparator antibacterials. The procedure:
as §1, §2

Test [6] has as its system Pseudomonas aeruginosa cystic fibrosis isolate 1145. Nature of the test: microbe, parasite or virus in culture. Particulars: strain 1145, MDR, comparator antibacterials, read-out: MIC. The procedure:
as §1, §2

For test [7], the system named is Pseudomonas aeruginosa cystic fibrosis isolate 3206. Nature of the test: microbe, parasite or virus in culture. As to conditions: strain 3206, MDR, comparator antibacterials, read-out: MIC. The protocol: as §1, §2
For test [8], the system named is non-CF clinical isolates of P. aeruginosa. Nature of the test: MIC vs non-CF clinical isolates of P. aeruginosa. As to conditions: Pseudomonas aeruginosa, comparator antibacterials. The procedure: as §1, with “Schweizer. […] Strain Z61 (ATCC 35151) is also hypersusceptible to antibacterials. It is thought that the hypersusceptibility of this strain is the result of increased permeability of its outer membrane (Angus B L et al, Antimicrobial Agents and Chemotherapy 1982 21,299-309: Outer membrane permeability in Pseudomonas aeruginosa: Comparison of a wild-type with an antibacterial-supersusceptible mutant).” for “Schweizer.”
as §2, with “MIC. Performance of the assay was monitored by the use of laboratory quality-control strains against tobramycin, that has a defined MIC spectrum, in accordance with NCCLS guidelines.” for “MIC.”

The test system of test [9] is Acinetobacter calcoaceticus. Nature of the test: MIC vs non-fermenting organisms: Acinetobacter calcoaceticus. As to conditions: Acinet. calc., comparator antibacterials. The procedure:
as §1, §2

In the next test the test system is Alcaligenes xylosoxidans. The experiment in a line: MIC vs non-fermenting organisms: Alcaligenes xylosoxidans. As to conditions: Achromobacter xylosoxidans; Alcal. xyl; comparator antibacterials. The protocol: as §1, §2
The subject of the next test is Burkholderia cepacia. Nature of the test: MIC vs non-fermenting organisms: Burkholderia cepacia. As to conditions: B. cepacia, comparator antibacterials. The procedure:
as §1, §2

In test [10] the test system is Stenotrophomonas maltophilia. Nature of the test: MIC vs non-fermenting organisms: Stenotrophomonas maltophilia. As to conditions: S. malt., comparator antibacterials. The protocol: as §1, §2
A further test has as its system Enterobacter cloacae. The experiment in a line: MIC vs enteric organisms: Enterobacter cloacae. As to conditions: E. clo., comparator antibacterials. The protocol: as §1, §2
The subject of another test is Escherichia coli. Nature of the test: MIC vs enteric organisms: Escherichia coli clinical isolates. The protocol:
as §1, §2

A further test has as its system Klebsiella pneumoniae. The experiment in a line: MIC vs enteric organisms: Klebsiella pneumoniae. Particulars: K. pneu., comparator antibacterials. The protocol: as §1, §2
A further test concerns Klebsiella oxytoca. Nature of the test: MIC vs enteric organisms: Klebsiella oxytoca. Particulars: K. oxy., comparator antibacterials. The procedure:
as §1, §2

In the next test the test system is Proteus mirabilis. Nature of the test: MIC vs enteric organisms: Proteus mirabilis. As to conditions: P. mir., comparator antibacterials. The procedure: as §1, §2
Another test relates to Serratia marcescens. Nature of the test: MIC vs enteric organisms: Serratia marcescens. As to conditions: S. marc., comparator antibacterials. The protocol:
as §1, §2

Test [11] deals with Pseudomonas aeruginosa cystic fibrosis isolate 3232. Nature of the test: MIC vs cystic fibrosis isolate of P. aeruginosa 3232 (Ceftaz. R). Particulars: strain 3232, Ceftaz. R, comparator antibacterials.
The test system of another test is Enterobacter aerogenes. The experiment in a line: MIC vs enteric organisms: Enterobacter aerogenes. Particulars: Klebsiella aerogenes; E. aer.; comparator antibacterials. The procedure: as §1, §2
[12] abbreviates: Burkholderia cepacia, read-out: MIC.
The mark [13] stands for this setting: E. coli 1619, comparator antibacterials.
[14] abbreviates: Escherichia coli, E. coli 1619, comparator antibacterials, read-out: MIC.
Where [15] appears, read: Escherichia coli, E. coli 2788, comparator antibacterials, read-out: MIC.
Where [16] appears, read: Stenotrophomonas maltophilia, read-out: MIC.

Values after ≈ are worked out from the molar mass of the structure shown. Like-named read-outs stand apart in the source and are kept apart here.

For `C[C@H]1[C@H](NC(=O)/C(=N\OC(C)(C)C(=O)O)c2csc(N)n2)C(=O)N1S(=O)(=O)O` [Aztreonam, aztreonam, reference compound], the MIC was 1 µg/mL (≈ 2.3 µM) in test [1]; 0.5 µg/mL (≈ 1.15 µM) in [2]; 1 µg/mL (≈ 2.3 µM) in test [3]; 1 µg/mL (≈ 2.3 µM) in test [4]; 64 µg/mL (≈ 147 µM) in test [5]; above 128 µg/mL in test [6]. Also, the MIC in [7] is above 128 µg/mL; in test [8] (P. aer 12307) it was 16 µg/mL (≈ 36.7 µM); in test [8] (P. aer psa-6b) it was 32 µg/mL (≈ 73.5 µM); in test [9] it was 32 µg/mL (≈ 73.5 µM); against Alcaligenes xylosoxidans, 32 µg/mL (≈ 73.5 µM); in the test on Burkholderia cepacia (setting [12]) it was 64 µg/mL (≈ 147 µM). The MIC is 16 µg/mL (≈ 36.7 µM) in test [10]; at most 0.13 µg/mL in the test with Enterobacter cloacae; 64 µg/mL (≈ 147 µM) in the test on Escherichia coli (setting [13]); 128 µg/mL (≈ 294 µM) in the test on Escherichia coli (setting [14]); at most 0.13 µg/mL in the test on Escherichia coli (setting [15]); 2 µg/mL (≈ 4.59 µM) in the test on Klebsiella pneumoniae. Also, the MIC is 0.5 µg/mL (≈ 1.15 µM) in the test on Klebsiella oxytoca, at most 0.13 µg/mL with Proteus mirabilis, at most 0.13 µg/mL in the test on Serratia marcescens and 1 µg/mL (≈ 2.3 µM) in test [11].
`CO/N=C(\C(=O)N[C@@H]1C(=O)N2C(C(=O)[O-])=C(C[N+]3(C)CCCC3)CS[C@H]12)c1csc(N)n1` [Cefepime, cefepime, reference compound]: the MIC in test [1] is 4 µg/mL (≈ 8.32 µM); in test [2], 2 µg/mL (≈ 4.16 µM); in test [3], 2 µg/mL (≈ 4.16 µM); in test [4], 8 µg/mL (≈ 16.6 µM); in test [5] it was 8 µg/mL (≈ 16.6 µM); in test [6] it was above 128 µg/mL. In addition, the MIC in test [7] is 32 µg/mL (≈ 66.6 µM); in test [8] (P. aer 12307) it was 2 µg/mL (≈ 4.16 µM); in test [8] (P. aer psa-6b), 8 µg/mL (≈ 16.6 µM); in [9], 8 µg/mL (≈ 16.6 µM); in the test on Alcaligenes xylosoxidans, 8 µg/mL (≈ 16.6 µM); against Burkholderia cepacia it was 16 µg/mL (≈ 33.3 µM). For the same molecule, the MIC with Burkholderia cepacia (setting [12]) is 32 µg/mL (≈ 66.6 µM); against Enterobacter cloacae, at most 0.13 µg/mL; with Escherichia coli (setting [15]) it was at most 0.13 µg/mL; against Klebsiella pneumoniae, 8 µg/mL (≈ 16.6 µM); against Klebsiella oxytoca, at most 0.13 µg/mL; in the test with Proteus mirabilis, at most 0.13 µg/mL. Further, the MIC in the test on Serratia marcescens was at most 0.13 µg/mL; in [11], 2 µg/mL (≈ 4.16 µM).
As to `C[C@@H](O)[C@H]1C(=O)N2C(C(=O)O)=C(S[C@@H]3CN[C@H](C(=O)N(C)C)C3)[C@H](C)[C@H]12` [Meropenem, meropenem, reference compound], the MIC was 0.5 µg/mL (≈ 1.3 µM) in test [8] (P. aer 12307); 0.25 µg/mL (≈ 0.652 µM) in test [8] (P. aer psa-6b); 4 µg/mL (≈ 10.4 µM) in test [9]; 0.5 µg/mL (≈ 1.3 µM) in the test on Alcaligenes xylosoxidans; 4 µg/mL (≈ 10.4 µM) with Burkholderia cepacia (setting [12]); 64 µg/mL (≈ 167 µM) in [10] (setting [16]). The MIC in the test with Enterobacter aerogenes was 2 µg/mL (≈ 5.22 µM); with Enterobacter cloacae, at most 0.06 µg/mL; in the test on Escherichia coli (setting [13]) it was 0.13 µg/mL (≈ 0.339 µM); in the test on Escherichia coli (setting [14]), 0.25 µg/mL (≈ 0.652 µM); in the test on Escherichia coli (setting [15]) it was at most 0.06 µg/mL; in the test on Klebsiella pneumoniae, 0.13 µg/mL (≈ 0.339 µM). The figures for the MIC against Klebsiella oxytoca, in the test with Proteus mirabilis and against Serratia marcescens were at most 0.06 µg/mL, 0.5 µg/mL (≈ 1.3 µM) and 0.13 µg/mL (≈ 0.339 µM), respectively.
`CC(C)(O/N=C(\C(=O)N[C@@H]1C(=O)N2C(C(=O)[O-])=C(C[n+]3ccccc3)CS[C@H]12)c1csc(N)n1)C(=O)O` [Ceftazidime, ceftazidime, reference compound]: the MIC was 2 µg/mL (≈ 3.66 µM) in test [1]; 0.25 µg/mL (≈ 0.457 µM) in test [2]; 2 µg/mL (≈ 3.66 µM) in test [3]; 2 µg/mL (≈ 3.66 µM) in test [4]; 4 µg/mL (≈ 7.32 µM) in test [5]; above 128 µg/mL in [6]. In addition, the MIC is above 128 µg/mL in test [7]; 4 µg/mL (≈ 7.32 µM) in [8] (P. aer 12307); 64 µg/mL (≈ 117 µM) in test [8] (P. aer psa-6b); 16 µg/mL (≈ 29.3 µM) in [9]; 1 µg/mL (≈ 1.83 µM) in the test on Alcaligenes xylosoxidans; 4 µg/mL (≈ 7.32 µM) in the test with Burkholderia cepacia. Besides, the MIC in the test with Burkholderia cepacia (setting [12]) was 8 µg/mL (≈ 14.6 µM); in test [10] (setting [16]) it was 1 µg/mL (≈ 1.83 µM); with Enterobacter aerogenes, 32 µg/mL (≈ 58.5 µM); against Enterobacter cloacae it was 0.25 µg/mL (≈ 0.457 µM); against Escherichia coli (Escherichia coli), above 128 µg/mL; in the test with Escherichia coli (setting [15]), 0.25 µg/mL (≈ 0.457 µM). For the same molecule, the MIC was 8 µg/mL (≈ 14.6 µM) with Klebsiella pneumoniae; 0.25 µg/mL (≈ 0.457 µM) with Klebsiella oxytoca; at most 0.13 µg/mL in the test with Proteus mirabilis; 0.25 µg/mL (≈ 0.457 µM) against Serratia marcescens; 64 µg/mL (≈ 117 µM) in [11].
Turning to `NC[C@H]1O[C@H](O[C@H]2[C@H](O)[C@@H](O[C@H]3O[C@H](CO)[C@@H](O)[C@H](N)[C@H]3O)[C@H](N)C[C@@H]2N)[C@H](N)C[C@@H]1O` [Tobramycin, tobramycin, reference compound], the MIC in [1] was 2 µg/mL (≈ 4.28 µM); in test [2], 0.5 µg/mL (≈ 1.07 µM); in [3] it was 2 µg/mL (≈ 4.28 µM); in test [4], 64 µg/mL (≈ 137 µM); in test [5], 2 µg/mL (≈ 4.28 µM); in [6], 8 to 32 µg/mL (≈ 17.1 to 68.4 µM). Besides, the MIC in test [8] (P. aer 12307) is 8 µg/mL (≈ 17.1 µM); in test [8] (P. aer psa-6b), 2 µg/mL (≈ 4.28 µM); in test [9] it was 2 µg/mL (≈ 4.28 µM); in the test with Alcaligenes xylosoxidans, 64 µg/mL (≈ 137 µM); against Burkholderia cepacia it was above 128 µg/mL; in the test with Burkholderia cepacia (setting [12]), 64 µg/mL (≈ 137 µM). Besides, the MIC in [10] (setting [16]) came to 0.5 µg/mL (≈ 1.07 µM); with Enterobacter aerogenes it was 64 µg/mL (≈ 137 µM); against Enterobacter cloacae, 0.06 µg/mL (≈ 0.128 µM); with Klebsiella pneumoniae it was 64 µg/mL (≈ 137 µM); in the test with Klebsiella oxytoca it was 1 µg/mL (≈ 2.14 µM); against Proteus mirabilis, 2 µg/mL (≈ 4.28 µM). For the same molecule, the MIC with Serratia marcescens came out at 2 µg/mL (≈ 4.28 µM); in [11], 1 µg/mL (≈ 2.14 µM).

The record behind these values is patent US7358359B2, “Antibacterial agents” (University of Washington, priority 2003, dated 2008).
